Calls of active or inactive are those of the source. The calls are words filed in the database; no cut-off is given here.
Experiments:
Human alphaherpesvirus 1 [1] = assay: Antiviral activity against HSV1 infected herpes simplex keratitis New zealand rabbit model at 0.025% administered twice daily as gel 24 hrs post inoculation measured on day 9 post infection; type: functional
[2] = Cytotoxicity against human MRC5 cells after 48 hrs by MTT assay; type: cell-based
Human alphaherpesvirus 1 [3] = assay: Antiviral activity against HSV1 strain F ATCC VR733 infected in african green monkey Vero cells assessed as inhibition of cytopathic effect after 48 hrs by plaque reduction assay; type: functional, organism-based; settings: for EC50: Human alphaherpesvirus 1, strain F ATCC VR733, Vero
Human alphaherpesvirus 1 [4] = assay: Antiviral activity against HSV1 infected herpes simplex keratitis New zealand rabbit model at 0.1% administered twice daily as gel 24 hrs post inoculation measured on day 9 post infection; type: functional
Human alphaherpesvirus 1 [5] = assay: Antiviral activity against HSV1 infected herpes simplex keratitis New zealand rabbit model assessed as reduction in viral DNA level in corneal sample compound administered twice daily as gel 24 hrs post inoculation measured on day 9 post infection by RT-PCR analysis; type: functional, organism-based; settings: Cornea
Human alphaherpesvirus 2 [6] = assay: Antiviral activity against HSV2 strain 333 infected in african green monkey Vero cells assessed as inhibition of cytopathic effect at 4 uM after 48 hrs by plaque reduction assay; type: functional, cell-based
[7] = Cytotoxicity against african green monkey Vero cells assessed as inhibition of cell viability after 48 hrs by MTT assay; type: cell-based; settings: chlorocebus sabaeus
Human alphaherpesvirus 1 [8] = assay: Antiviral activity against HSV1 infected herpes simplex keratitis New zealand rabbit model assessed as reduction in viral DNA level in corneal sample at 0.025% to 0.1% administered twice daily as gel 24 hrs post inoculation measured on day 9 post infection by RT-PCR analysis; type: functional, organism-based; settings: Cornea
[9] = Selectivity index, ratio of CC50 for african green monkey Vero cells to EC50 for HSV1 strain F ATCC VR733 infected in african green monkey Vero cells; type: toxicity, cell-based; settings: read-out: Ratio CC50/EC50
Human alphaherpesvirus 2 [10] = assay: Antiviral activity against HSV2 strain 333 infected in african green monkey Vero cells assessed as inhibition of cytopathic effect after 48 hrs by plaque reduction assay; type: functional, cell-based; settings: for EC50: Human alphaherpesvirus 2, strain 333, Vero
Human alphaherpesvirus 1 [11] = assay: Antiviral activity against HSV1 infected herpes simplex keratitis New zealand rabbit model assessed as reduction in corneal epithelia involvement score at 0.025% to 0.1% administered twice daily as gel 24 hrs post inoculation measured on day 9 post infection; type: functional, organism-based; settings: Cornea
Human alphaherpesvirus 1 [12] = assay: Antiviral activity against HSV1 infected herpes simplex keratitis New zealand rabbit model at 0.025% to 0.1% administered twice daily as gel 24 hrs post inoculation measured on day 9 post infection; type: functional, organism-based
Human alphaherpesvirus 1 [13] = assay: Antiviral activity against HSV1 strain F ATCC VR733 infected in african green monkey Vero cells assessed as inhibition of cytopathic effect at 4 uM after 48 hrs by plaque reduction assay; type: functional, organism-based
[14] = Selectivity index, ratio of CC50 for african green monkey Vero cells to EC50 for HSV2 strain 333 infected in african green monkey Vero cells
Human alphaherpesvirus 1 [15] = assay: Antiviral activity against HSV1 strain F ATCC VR733 infected in african green monkey Vero cells assessed as inhibition of cytopathic effect at 3.5 uM after 48 hrs by plaque reduction assay; type: functional, organism-based
Human alphaherpesvirus 2 [16] = assay: Antiviral activity against HSV2 strain 333 infected in african green monkey Vero cells assessed as inhibition of cytopathic effect at 3.5 uM after 48 hrs by plaque reduction assay; type: functional, cell-based

| EC50 (Human alphaherpesvirus 1 [3]) | EC50 (Human alphaherpesvirus 2 [10]) | SMILES | Activity (Human alphaherpesvirus 1 [1]) | CC50 at 48 h [2] | inhibition (Human alphaherpesvirus 1 [3]) | Activity (Human alphaherpesvirus 1 [4]) | Activity (Human alphaherpesvirus 1 [5]) | inhibition (Human alphaherpesvirus 2 [6]) | CC50 at 48 h [7] | Activity (Human alphaherpesvirus 1 [8]) | selectivity ratio [9] | inhibition (Human alphaherpesvirus 2 [10]) | Activity (Human alphaherpesvirus 1 [11]) | Activity (Human alphaherpesvirus 1 [12]) | inhibition (Human alphaherpesvirus 1 [13]) | Ratio CC50/EC50 [14] | inhibition (Human alphaherpesvirus 1 [15]) | inhibition (Human alphaherpesvirus 2 [16]) |
| --- | --- | --- | --- | --- | --- | --- | --- | --- | --- | --- | --- | --- | --- | --- | --- | --- | --- | --- |
| 2240 nM | 1750 nM | Cc1nn(-c2ccc(C(N)=O)c(N[C@H]3CC[C@H](O)CC3)c2)c2c1C(=O)CC(C)(C)C2 | 74.23% | 54100 nM | Dose-dependent effect | 83.76% | Dose-dependent effect | Active | 27100 nM | Active | 12.1 | Dose-dependent effect | Active | Active | Active | 15.46 | – | – |
| 1030 nM | 1000 nM | Cc1cn(-c2ccc(C(N)=O)c(N[C@H]3CC[C@H](O)CC3)c2)c2c1C(=O)CC(C)(C)C2 | – | 24900 nM | Dose-dependent effect | – | Dose-dependent effect | Active | 12900 nM | Active | 12.6 | Dose-dependent effect | Active | Active | Active | 12.94 | – | – |
| 2260 nM | 1850 nM | CC1(C)CC(=O)c2c(C(F)(F)F)nn(-c3ccc(C(N)=O)c(N[C@H]4CC[C@H](O)CC4)c3)c2C1 [SNX-2112] | – | 21300 nM | Dose-dependent effect | – | Dose-dependent effect | Active | 13300 nM | Active | 5.9 | Dose-dependent effect | Active | Active | Active | 7.21 | – | – |

| SMILES | EC50 (Human alphaherpesvirus 1 [3]) | EC50 (Human alphaherpesvirus 2 [10]) | Activity (Human alphaherpesvirus 1 [1]) | CC50 at 48 h [2] | inhibition (Human alphaherpesvirus 1 [3]) | Activity (Human alphaherpesvirus 1 [4]) | Activity (Human alphaherpesvirus 1 [5]) | inhibition (Human alphaherpesvirus 2 [6]) | CC50 at 48 h [7] | Activity (Human alphaherpesvirus 1 [8]) | selectivity ratio [9] | inhibition (Human alphaherpesvirus 2 [10]) | Activity (Human alphaherpesvirus 1 [11]) | Activity (Human alphaherpesvirus 1 [12]) | inhibition (Human alphaherpesvirus 1 [13]) | Ratio CC50/EC50 [14] | inhibition (Human alphaherpesvirus 1 [15]) | inhibition (Human alphaherpesvirus 2 [16]) |
| --- | --- | --- | --- | --- | --- | --- | --- | --- | --- | --- | --- | --- | --- | --- | --- | --- | --- | --- |
| Nc1nc2c(ncn2COCCO)c(=O)[nH]1 [ACYCLOVIR] | 1200 nM | 1870 nM | – | – | – | – | Dose-dependent effect | – | > 200000 nM | Active | > 167 | – | Active | – | – | >106.95 | Active | Active |

— ChEMBL document CHEMBL2163311, “Anti-herpes simplex virus efficacies of 2-aminobenzamide derivatives as novel HSP90 inhibitors” (Bioorg Med Chem Lett, 2012)
